The results in this text go back to patent US20170334899A1, “AMINO-SUBSTITUTED ISOTHIAZOLES” (Bayer Pharma Aktiengesellschaft, priority 2014, published 2017).

Where two headings read alike, the source gives them in different places.

For one assay, the system named is HeLa. Briefly: Proliferation assay (crystal violet), HeLa. The format is cell-based. The conditions noted are these: Homo sapiens, HeLa, 96 h, HeLa cells; 4 days incubation; crystal violet staining; read-out: IC50 inhibition of proliferation, HeLa. In a few lines:
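Four-day compound exposure (0.001-10 μM, 0.5% DMSO final) began 24 h after seeding 1000-5000 cells/well in medium with 10% fetal calf serum. Cell number read by crystal violet absorbance at 595 nm, scaled between day-zero plate and untreated control; 4-parameter fit gave IC50.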

In assay [1] the test system is human cervical tumor cell line HeLa (ATCC CCL-2). Briefly: SAC-Formation - Paclitaxel-Induced Assay. The format is cell-based. The conditions noted are these: 24 h, HeLa cells, paclitaxel 0.05 μM, test range 0.005 μM-20 μM, read-out: IC50 [mol/l] SAC-Formation - Paclitaxel-Induced Assay. In outline: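 Read-out is high-content imaging of anti-phospho-H3 Ser10 (mitosis) and Hoechst 33342 (DNA, cell number), with decreased mitotic fraction marking checkpoint breakthrough. Compounds (0.005–20 μM) and 0.05 μM paclitaxel co-added to overnight-plated HeLa for 24 h at 37° C; four-parameter Hill fit.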

Take `Cc1nsc(Nc2cnc(C(F)(F)F)cn2)c1C(=O)Nc1ccc(OC[C@H]2CCN(CC(F)(F)F)C2)nc1` (racemic) [Example 133, 3-Methyl-N-(6-{[(SR)-1-(2,2,2-trifluoroethyl)pyrrolidin-3-yl]methoxy}pyridin-3-yl)-5-{[5-(trifluoromethyl)pyrazin-2-yl]amino}-1,2-thiazole-4-carboxamide]: the IC50 in the assay with HeLa was 420 nM.
As for `Cc1nsc(Nc2cnc(C(F)(F)F)cn2)c1C(=O)Nc1ccc(OC2CCNCC2)nc1` [Example 6, 3-Methyl-N-[6-(piperidin-4-yloxy)pyridin-3-yl]-5-{[5-(trifluoromethyl)pyrazin-2-yl]amino}-1,2-thiazole-4-carboxamide], the IC50 in the assay with HeLa was found to be 10000 nM; in assay [1] (Homo sapiens, HeLa), 19000 nM.
The corresponding values for `Cc1nsc(Nc2cnc(C(F)(F)F)cn2)c1C(=O)Nc1ccc(OC2CCN(CCF)CC2)nc1` [Example 7, N-(6-{[1-(2-Fluoroethyl)piperidin-4-yl]oxy}pyridin-3-yl)-3-methyl-5-{[5-(trifluoromethyl)pyrazin-2-yl]amino}-1,2-thiazole-4-carboxamide] are 580 nM and 770 nM.
Regarding `Cc1nsc(Nc2cnc(C(F)(F)F)cn2)c1C(=O)Nc1ccc(OC2CCN(CC(F)F)CC2)nc1` [Example 8, N-(6-{[1-(2,2-Difluoroethyl)piperidin-4-yl]oxy}pyridin-3-yl)-3-methyl-5-{[5-(trifluoromethyl)pyrazin-2-yl]amino}-1,2-thiazole-4-carboxamide], the IC50 amounted to 280 nM with HeLa and 1500 nM in assay [1] (Homo sapiens, HeLa).
In the case of `Cc1nsc(Nc2cnc(C(F)(F)F)cn2)c1C(=O)Nc1ccc(OC2CCN(CC(F)(F)F)CC2)nc1` [Example 9, -Methyl-N-(6-{[1-(2,2,2-trifluoroethyl)piperidin-4-yl]oxy}pyridin-3-yl)-5-{[5-(trifluoromethyl)pyrazin-2-yl]amino}-1,2-thiazole-4-carboxamide], the IC50 in the assay with HeLa was determined as 220 nM; in assay [1] (Homo sapiens, HeLa) it was 360 nM.
Turning to `Cc1nsc(Nc2cnc(C(F)(F)F)cn2)c1C(=O)Nc1ccc(OC2CCN(CCC(F)(F)F)CC2)nc1` [Example 10, 3-Methyl-5-{[5-(trifluoromethyl)pyrazin-2-yl]amino}-N-(6-{[1-(3,3,3-trifluoropropyl)-piperidin-4-yl]oxy}pyridin-3-yl)-1,2-thiazole-4-carboxamide], the figures for the IC50 (in the assay on HeLa; in assay [1]) were 330 nM and 340 nM, respectively.
Consider `CC(=O)N1CCC(Oc2ccc(NC(=O)c3c(C)nsc3Nc3cnc(C(F)(F)F)cn3)cn2)CC1` [Example 11, N-{6-[(1-Acetylpiperidin-4-yl)oxy]pyridin-3-yl}-3-methyl-5-{[5-(trifluoromethyl)-pyrazin-2-yl]amino}-1,2-thiazole-4-carboxamide], for which the IC50 was 1800 nM with HeLa and 150 nM in assay [1] (Homo sapiens, HeLa).
The corresponding values for `Cc1nsc(Nc2cncc(C(F)(F)F)n2)c1C(=O)Nc1ccc(OC2CCN(C(=O)OC(C)(C)C)CC2)nc1` [Example 12, tert-Butyl 4-[(5-{[(3-methyl-5-{[6-(trifluoromethyl)pyrazin-2-yl]amino}-1,2-thiazol-4-yl)carbonyl]amino}pyridin-2-yl)oxy]piperidine-1-carboxylate] are 910 nM and 230 nM.
On the same counts, the results for `Cc1nsc(Nc2cnc(C(F)(F)F)cn2)c1C(=O)Nc1ccc(C(=O)OC(C)(C)C)cc1` [Example 96, tert-Butyl 4-{[(3-methyl-5-{[5-(trifluoromethyl)pyrazin-2-yl]amino}-1,2-thiazol-4-yl)carbonyl]amino}benzoate] are 1100 nM and 39 nM.
The corresponding values for `Cc1nsc(Nc2cnc(C(F)(F)F)cn2)c1C(=O)Nc1ccc(C(=O)O)cc1` [Example 97, 4-{[(3-Methyl-5-{[5-(trifluoromethyl)pyrazin-2-yl]amino}-1,2-thiazol-4-yl)carbony]-amino}benzoic acid] are 10000 nM and 20000 nM.
With `Cc1nsc(Nc2ccc(C#N)cn2)c1C(=O)Nc1ccc(C(=O)OC(C)(C)C)cc1` [Example 98, tert-Butyl 4-[({5-[(5-cyanopyridin-2-yl)amino]-3-methyl-1,2-thiazol-4-yl}carbonyl)-amino]benzoate], the IC50 came to 690 nM in the assay with HeLa and 7.9 nM in assay [1] (Homo sapiens, HeLa).
`Cc1nsc(Nc2cnc3ccccc3n2)c1C(=O)Nc1cccc(C(=O)NCC(=O)O)c1` [Example 99, N-[3-({[3-Methyl-5-(quinoxalin-2-ylamino)-1,2-thiazol-4-yl]carbonyl}amino)benzoy]-glycine]: the IC50 in the assay on HeLa is 10000 nM; in assay [1] (Homo sapiens, HeLa) it was 20000 nM.
As for `COC(=O)CNC(=O)c1cccc(NC(=O)c2c(C)nsc2Nc2cnc3ccccc3n2)c1` [Example 100, Methyl N-[3-({[3-methyl-5-(quinoxalin-2-ylamino)-1,2-thiazol-4-yl]carbonyl}amino)-benzoyl]glycinate], the IC50 in the assay with HeLa came out at 10000 nM; in assay [1] (Homo sapiens, HeLa), 20000 nM.
As to `Cc1nsc(Nc2cnc3ccccc3n2)c1C(=O)Nc1cccc(C(=O)N2CCNCC2)c1` [Example 101, 3-Methyl-N-[3-(piperazin-1-ylcarbonyl)phenyl]-5-(quinoxalin-2-ylamino)-1,2-thiazole-4-carboxamide], the IC50 was 10000 nM with HeLa and 20000 nM in assay [1] (Homo sapiens, HeLa).
The corresponding values for `Cc1nsc(Nc2cnc3ccccc3n2)c1C(=O)Nc1cccc(C(=O)N2CCN(C)CC2)c1` [Example 102, 3-Methyl-N-{3-[(4-methylpiperazin-1-yl)carbonyl]phenyl}-5-(quinoxalin-2-ylamino)-1,2-thiazole-4-carboxamide] are 10000 nM and 7500 nM.
On the same counts, the results for `Cc1nsc(Nc2cnc3ccccc3n2)c1C(=O)Nc1cccc(C(=O)N[C@@H](CCC(N)=O)C(=O)O)c1` [Example 103, N^2-[3-({[3-Methyl-5-(quinoxalin-2-ylamino)-1,2-thiazol-4-yl]carbonyl}amino)-benzoyl]glutamine] are 10000 nM and 20000 nM.
On the same counts, the results for `Cc1nsc(Nc2cnc3ccccc3n2)c1C(=O)Nc1cccc(C(=O)N[C@H](C(=O)O)[C@@H](C)OC(C)(C)C)c1` [Example 104, O-tert-Butyl-N-[3-({[3-methyl-5-(quinoxalin-2-ylamino)-1,2-thiazol-4-yl]-carbonyl}amino)benzoyl]threonine] are 6400 nM and 3200 nM.
Consider `Cc1nsc(Nc2cnc3ccccc3n2)c1C(=O)Nc1cccc(C(=O)N[C@H](C(=O)O)[C@@H](C)O)c1` [Example 105, N-[3-({[3-methyl-5-(quinoxalin-2-ylamino)-1,2-thiazol-4-yl]carbonyl}amino)-benzoyl]threonine], for which the IC50 in the assay on HeLa is 10000 nM; in assay [1] (Homo sapiens, HeLa) it was 20000 nM.
On the same counts, the results for `Cc1noc(-c2cccc(NC(=O)c3c(C)nsc3Nc3cnc4ccccc4n3)c2)n1` [Example 106, 3-Methyl-N-[3-(3-methyl-1,2,4-oxadiazol-5-yl)phenyl]-5-(quinoxalin-2-ylamino)-1,2-thiazole-4-carboxamide] are 1700 nM and 130 nM.
On the same counts, the results for `Cc1nsc(Nc2cnc3ccccc3n2)c1C(=O)Nc1cccc(-c2nnc(C(C)(C)C)o2)c1` [Example 107, N-[3-(5-tert-Butyl-1,3,4-oxadiazol-2-yl)phenyl]-3-methyl-5-(quinoxalin-2-ylamino)-1,2-thiazole-4-carboxamide] are 3000 nM and 210 nM.
As to `Cc1nsc(Nc2cnc3ccccc3n2)c1C(=O)Nc1cccc(-c2nc(C(C)(C)C)no2)c1` [Example 108, N-[3-(3-tert-Butyl-1,2,4-oxadiazol-5-yl)phenyl]-3-methyl-5-(quinoxalin-2-ylamino)-1,2-thiazole-4-carboxamide], the IC50 was determined as 910 nM with HeLa and 53 nM in assay [1] (Homo sapiens, HeLa).
The corresponding values for `Cc1nsc(Nc2cnc(C(F)(F)F)cn2)c1C(=O)Nc1ccc(OCC2CCN(C(=O)OC(C)(C)C)C2)nc1` (centres unmarked) [Example 109, tert-Butyl 3-{[(5-{[(3-methyl-5-{[5-(trifluoromethyl)pyrazin-2-yl]amino}-1,2-thiazol-4-yl)carbonyl]amino}pyridin-2-yl)oxy]methyl}pyrrolidine-1-carboxylate] are 200 nM and 37 nM.
In the case of `Cc1nsc(Nc2cncc(C(F)(F)F)n2)c1C(=O)Nc1ccc(OCC2CCN(C(=O)OC(C)(C)C)C2)nc1` (centres unmarked) [Example 110, tert-Butyl 3-{[(5-{[(3-methyl-5-{[6-(trifluoromethyl)pyrazin-2-yl]amino}-1,2-thiazol-4-yl)carbonyl]amino}pyridin-2-yl)oxy]methyl}pyrrolidine-1-carboxylate], the IC50 is 850 nM with HeLa and 150 nM in assay [1] (Homo sapiens, HeLa).
As to `Cc1nsc(Nc2cnc(C(F)(F)F)cn2)c1C(=O)Nc1ccc(OC[C@H]2CCN(CC(F)F)C2)nc1` [Example 132, N-(6-{[(3S)-1-(2,2-difluoroethyl)pyrrolidin-3-yl]methoxy}pyridin-3-yl)-3-methyl-5-{[5-(trifluoromethyl)pyrazin-2-yl]amino}-1,2-thiazole-4-carboxamide], the IC50 with HeLa stood at 450 nM.
The same measure, in the same setting: the value for `Cc1nsc(Nc2cnc(C(F)(F)F)cn2)c1C(=O)Nc1ccc(OC[C@H]2CCN(CCC(F)(F)F)C2)nc1` [Example 134, 3-Methyl-5-{[5-(trifluoromethyl)pyrazin-2-yl]amino}-N-(6-{[(3S)-1-(3,3,3-trifluoropropyl)pyrrolidin-3-yl]methoxy}pyridin-3-yl)-1,2-thiazole-4-carboxamide] was 450 nM.
